From patent publication EP4692061A1, “LOW-MOLECULAR-WEIGHT COMPOUND HAVING CEREBLON-BINDING ACTIVITY, AND USE THEREOF” (Aevis Bio, Inc., priority 2023, dated 2024)

Tests used:
[1] = system: MM.1S; assay: Tumor cell viability, CCK-8 assay, MM.1S; type: cell-based; conditions: MM.1S (human multiple myeloma); compound treatment 1uM; 5 days
Method: (§1) To examine whether the compounds having CRBN-binding activity according to the present invention exert tumor cell apoptosis effects, the assay was conducted using various human cancer cell lines, including human multiple myeloma cell lines (MM.1S and MM.1R-LR), a human breast cancer cell line (MDA-MB-231), a human lung cancer cell line (A549), a human rhabdomyosarcoma cell line (RD), and a human lymphoma cell line (Jeko-1).
(§2) The MM.1S, MM.1R-LR, MDA-MB-231, A549, RD, and Jeko-1 cell lines were obtained from the American Type Culture Collection (ATCC, Manassas, VA, USA) and cultured in RPMI 1640 medium (Corning, MD, USA) or DMEM (Corning, MD, USA) supplemented with 10% fetal bovine serum (FBS) (Corning, MD, USA), 100 U/mL penicillin (Corning, MD, USA), and 100 µg/mL streptomycin (Corning, MD, USA) at 37°C in a 5% CO2 incubator for 24 hours. The cells were seeded at a density of 1 × 10^4 cells/well in 96-well plates and incubated for 24 hours. After incubation, the test compounds dissolved in dimethyl sulfoxide (DMSO, CAS No.: 67-68-5) were serially diluted to a final concentration of 10 µM and applied to the cells. Following an additional incubation for 2 to 5 days, the analysis was performed using a CCK-8 assay kit (Dojindo, Japan) according to the manufacturer's instructions.

[2] = system: MM.1R-LR; assay: Tumor cell viability, CCK-8 assay, MM.1R-LR; type: cell-based; conditions: MM.1R-LR (drug-resistant human multiple myeloma); compound treatment 1uM; 5 days
Method: as §1, §2

[3] = system: Jeko-1; assay: Tumor cell viability, CCK-8 assay, Jeko-1; type: cell-based; conditions: Jeko-1 (human lymphoma); compound treatment 1uM; 3 days
Method: as §1, §2

[4] = target: cereblon (CRBN) (Homo sapiens, UniProt Q96SW2); assay: In vitro CRBN binding assay (AlphaScreen, competitive inhibition of the PROTAC assay); conditions: Table 1; AlphaScreen, PROTAC Optimization Kit for BET Bromodomain-Cereblon Binding; read-out: Alpha IC50
[5] = system: MDA-MB-231; assay: Tumor cell viability, CCK-8 assay, MDA-MB-231; type: cell-based; conditions: MDA-MB-231 (human breast cancer); compound treatment 1uM; 2 days
Method: as §1, §2

[6] = system: RD; assay: Tumor cell viability, CCK-8 assay, RD; type: cell-based; conditions: RD (human rhabdomyosarcoma); compound treatment 1uM; 3 days
Method: as §1, §2

[7] = system: A549; assay: Tumor cell viability, CCK-8 assay, A549; type: cell-based; conditions: A549 (human lung cancer); compound treatment 1uM; 2 days
Method: as §1, §2

CCCCCc1ccc(C(=O)Nc2cccc(S(=O)(=O)Nc3cccc(C4CCC(=O)NC4=O)c3)c2)cc1 (stereo not shown) [AEV41013, N-(3-(N-(3-(2,6-dioxopiperidin-3-yl)phenyl)sulfamoyl)phenyl)-4-pentylbenzamide]
Cell viability (% of control) [1]: 15.3 % of control | Cell viability (% of control) [2]: 55.2 % of control | Cell viability (% of control) [3]: 11.8 % of control | IC50 [4]: 360 nM | Cell viability (% of control) [5]: 38.5 % of control | Cell viability (% of control) [6]: 30.0 % of control | Cell viability (% of control) [7]: 25.8 % of control

O=C1CCC(c2cccc(NS(=O)(=O)c3cccc(NC(=O)c4ccc(Cl)cc4)c3)c2)C(=O)N1 (stereo not shown) [AEV41 001, 4-chloro-N-(3-(N-(3-(2,6-dioxopiperidin-3-yl)phenyl)sulfamoyl)phenyl)benzamide]
Cell viability (% of control) [1]: 88.3 % of control | Cell viability (% of control) [2]: 78.4 % of control | IC50 [4]: 1230 nM

O=C1CCC(c2cccc(NS(=O)(=O)c3cccc(NC(=O)c4ccc(CCCCCCl)cc4)c3)c2)C(=O)N1 (stereo not shown) [AEV41047, 4-(5-chloropentyl)-N-(3-(N-(3-(2,6-dioxopiperidin-3-yl)phenyl)sulfamoyl)phenyl)benzamide]
Cell viability (% of control) [1]: 14.9 % of control | Cell viability (% of control) [2]: 56.9 % of control | Cell viability (% of control) [3]: 15.7 % of control | IC50 [4]: 1880 nM | Cell viability (% of control) [5]: 28.2 % of control | Cell viability (% of control) [6]: 20.5 % of control | Cell viability (% of control) [7]: 32.2 % of control

CCCCCCCCc1ccc(C(=O)Nc2cccc(S(=O)(=O)Nc3cccc(C4CCC(=O)NC4=O)c3)c2)cc1 (stereo not shown) [AEV40264, N-(3-(N-(3-(2,6-dioxopiperidin-3-yl)phenyl)sulfamoyl)phenyl)-4-octylbenzamide]
Cell viability (% of control) [1]: 13.3 % of control | Cell viability (% of control) [2]: 79.8 % of control | Cell viability (% of control) [3]: 5.8 % of control | IC50 [4]: 320 nM | Cell viability (% of control) [5]: 46.3 % of control | Cell viability (% of control) [6]: 67.9 % of control | Cell viability (% of control) [7]: 61.8 % of control

O=C1CCC(c2cccc(NS(=O)(=O)c3cccc(NC(=O)c4ccc(CCl)cc4)c3)c2)C(=O)N1 (stereo not shown) [AEV41002, 4-(chloromethyl)-N-(3-(N-(3-(2,6-dioxopiperidin-3-yl)phenyl)sulfamoyl)phenyl)benzamide]
Cell viability (% of control) [1]: 97.8 % of control | Cell viability (% of control) [2]: 90.2 % of control | IC50 [4]: 170 nM

O=C1CCC(c2cccc(NS(=O)(=O)c3cccc(NC(=O)c4ccc(CCCl)cc4)c3)c2)C(=O)N1 (stereo not shown) [AEV41003, 4-(2-chloroethyl)-N-(3-(N-(3-(2,6-dioxopiperidin-3-yl)phenyl)sulfamoyl)phenyl)benzamide]
Cell viability (% of control) [1]: 92.1 % of control | Cell viability (% of control) [2]: 79.9 % of control | IC50 [4]: 770 nM | Cell viability (% of control) [5]: 97.0 % of control | Cell viability (% of control) [7]: 104.0 % of control

O=C1CCC(c2cccc(NS(=O)(=O)c3cccc(NC(=O)c4ccc(CCCCCl)cc4)c3)c2)C(=O)N1 (stereo not shown) [AEV41005, 4-(4-chlorobutyl)-N-(3-(N-(3-(2,6-dioxopiperidin-3-yl)phenyl)sulfamoyl)phenyl)benzamide]
Cell viability (% of control) [1]: 10.7 % of control | Cell viability (% of control) [2]: 58.2 % of control | Cell viability (% of control) [3]: 4.1 % of control | IC50 [4]: 1200 nM | Cell viability (% of control) [5]: 42.2 % of control | Cell viability (% of control) [6]: 28.7 % of control | Cell viability (% of control) [7]: 36.8 % of control

O=C1CCC(c2cccc(NS(=O)(=O)c3cccc(NC(=O)c4ccc(CCCCCCCl)cc4)c3)c2)C(=O)N1 (stereo not shown) [AEV41048, 4-(6-chlorohexyl)-N-(3-(N-(3-(2,6-dioxopiperidin-3-yl)phenyl)sulfamoyl)phenyl)benzamide]
Cell viability (% of control) [1]: 10.8 % of control | Cell viability (% of control) [2]: 51.5 % of control | Cell viability (% of control) [3]: 13.0 % of control | IC50 [4]: 2590 nM | Cell viability (% of control) [5]: 45.6 % of control | Cell viability (% of control) [6]: 54.0 % of control | Cell viability (% of control) [7]: 47.0 % of control

O=C1CCC(c2cccc(NS(=O)(=O)c3cccc(NC(=O)c4ccc(CCCCl)cc4)c3)c2)C(=O)N1 (stereo not shown) [AEV41004, 4-(3-chloropropyl)-N-(3-(N-(3-(2,6-dioxopiperidin-3-yl)phenyl)sulfamoyl)phenyl)benzamide]
Cell viability (% of control) [1]: 10.5 % of control | Cell viability (% of control) [2]: 63.8 % of control | IC50 [4]: 1570 nM | Cell viability (% of control) [5]: 83.5 % of control | Cell viability (% of control) [6]: 78.6 % of control | Cell viability (% of control) [7]: 101.9 % of control

CCCCCCc1ccc(C(=O)Nc2cccc(S(=O)(=O)Nc3cccc(C4CCC(=O)NC4=O)c3)c2)cc1 (stereo not shown) [AEV41083, N-(3-(N-(3-(2,6-dioxopiperidin-3-yl)phenyl)sulfamoyl)phenyl)-4-hexylbenzamide]
Cell viability (% of control) [1]: 17.8 % of control | Cell viability (% of control) [2]: 54.7 % of control | Cell viability (% of control) [3]: 9.7 % of control | IC50 [4]: 910 nM | Cell viability (% of control) [5]: 35.5 % of control | Cell viability (% of control) [6]: 31.4 % of control | Cell viability (% of control) [7]: 29.5 % of control

CCCCc1ccc(C(=O)Nc2cccc(S(=O)(=O)Nc3cccc(C4CCC(=O)NC4=O)c3)c2)cc1 (stereo not shown) [AEV41012, 4-butyl-N-(3-(N-(3-(2,6-dioxopiperidin-3-yl)phenyl)sulfamoyl)phenyl)benzamide]
Cell viability (% of control) [1]: 7.4 % of control | Cell viability (% of control) [2]: 56.7 % of control | Cell viability (% of control) [3]: 37.7 % of control | IC50 [4]: 940 nM | Cell viability (% of control) [5]: 78.7 % of control | Cell viability (% of control) [6]: 79.7 % of control | Cell viability (% of control) [7]: 94.0 % of control

CCCCCCCc1ccc(C(=O)Nc2cccc(S(=O)(=O)Nc3cccc(C4CCC(=O)NC4=O)c3)c2)cc1 (stereo not shown) [AEV40204, N-(3-(N-(3-(2,6-dioxopiperidin-3-yl)phenyl)sulfamoyl)phenyl)-4-heptylbenzamide]
Cell viability (% of control) [1]: 3.3 % of control | Cell viability (% of control) [2]: 49.4 % of control | Cell viability (% of control) [3]: 11.6 % of control | IC50 [4]: 440 nM | Cell viability (% of control) [5]: 40.4 % of control | Cell viability (% of control) [6]: 50.8 % of control | Cell viability (% of control) [7]: 33.6 % of control
